The values that follow come from ChEMBL document CHEMBL1938340, “DNA-instructed acyl transfer reactions for the synthesis of bioactive peptides” (Bioorg Med Chem Lett, 2011).

SMILES strings stand for the structures. Active and inactive are the calls of the source. The calls are words filed in the database; no cut-off is given here. Peptide text beside a SMILES is read from it.

In general, IC50 refers to the point on the concentration scale where inhibition reaches its midpoint.

Assay [1] concerns the target T1, E3 ubiquitin-protein ligase XIAP (Homo sapiens, UniProt P98170). Kind of assay: Displacement of fluorescent H-Abu-Arg-Pro-Phe-Lys-NH-FAM-NH2 peptide from XIAP BIR3 domain by fluorescence polarization assay.
The target of assay [2] is T1, E3 ubiquitin-protein ligase XIAP. In words: Inhibition of XIAP in HEK293 cell lysate assessed as release of caspase-9 from BIR3 measuring formation of fluorescent AFC from LEHD-AFC by fluorimetry. It is filed as cell-free.
For assay [3] the target is unchanged. Kind of assay: Inhibition of XIAP in HEK293 cell lysate assessed as release of caspase-3 from BIR3 measuring formation of fluorescent AFC from DEVD-AFC by fluorimetry. It is filed as cell-free.

T1 sequence (P98170 whole entry, the tested form may be a part): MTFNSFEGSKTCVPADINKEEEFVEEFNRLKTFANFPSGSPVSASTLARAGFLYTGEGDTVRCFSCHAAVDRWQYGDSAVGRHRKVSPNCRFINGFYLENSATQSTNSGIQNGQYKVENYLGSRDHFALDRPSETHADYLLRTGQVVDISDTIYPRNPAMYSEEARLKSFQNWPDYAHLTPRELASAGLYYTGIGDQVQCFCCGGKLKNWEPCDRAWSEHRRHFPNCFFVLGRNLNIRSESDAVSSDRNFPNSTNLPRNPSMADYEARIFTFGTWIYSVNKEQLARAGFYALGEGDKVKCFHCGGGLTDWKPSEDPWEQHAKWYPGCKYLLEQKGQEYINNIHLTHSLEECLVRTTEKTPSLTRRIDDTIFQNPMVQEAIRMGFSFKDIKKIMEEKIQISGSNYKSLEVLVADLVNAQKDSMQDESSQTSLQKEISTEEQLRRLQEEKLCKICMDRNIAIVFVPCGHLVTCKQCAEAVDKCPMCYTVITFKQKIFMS

In turn, `CC[C@H](C)[C@H](NC(=O)[C@@H]1CCCN1C(=O)[C@H](CS)NC(=O)[C@H](C)N)C(=O)NCCOCCOCC(=O)NCCN(CC(=O)NCCN(CC(=O)NCCN(CC(=O)NCCN(CC(=O)NCCN(CC(=O)NCCN(CC(=O)NCCN(CC(=O)NCC(N)=O)C(=O)Cn1cnc2c(=O)[nH]c(N)nc21)C(=O)Cn1cnc2c(N)ncnc21)C(=O)Cn1ccc(N)nc1=O)C(=O)Cn1cnc2c(N)ncnc21)C(=O)Cn1cc(C)c(=O)[nH]c1=O)C(=O)Cn1ccc(N)nc1=O)C(=O)Cn1ccc(N)nc1=O` gave an IC50 in assay [1] of 560 nM. Further, the inhibition result in assay [2] and in assay [3] was “Dose-dependent effect” throughout.

For the compound `CC[C@H](C)[C@H](NC(=O)[C@@H]1CCCN1C(=O)[C@H](CS)NC(=O)[C@H](C)N)C(=O)N[C@@H](C)C(=O)N[C@@H](CCC(N)=O)C(=O)N[C@@H](CCCCN)C(=O)NCCN(CC(=O)NCCN(CC(=O)NCCN(CC(=O)NCCN(CC(=O)NCCN(CC(=O)NCCN(CC(=O)NCCN(CC(=O)NCC(N)=O)C(=O)Cn1cnc2c(=O)[nH]c(N)nc21)C(=O)Cn1cnc2c(N)ncnc21)C(=O)Cn1ccc(N)nc1=O)C(=O)Cn1cnc2c(N)ncnc21)C(=O)Cn1cc(C)c(=O)[nH]c1=O)C(=O)Cn1ccc(N)nc1=O)C(=O)Cn1ccc(N)nc1=O`, the IC50 in assay [1] was found to be 1520 nM. The inhibition entry in assay [2] and in assay [3] was “Dose-dependent effect” each time. Turning to `CC[C@H](C)[C@H](NC(=O)[C@@H]1CCCN1C(=O)[C@H](CS)NC(=O)[C@H](C)N)C(=O)O` (H-ACPI-OH), the IC50 in assay [1] is 650 nM. This counts as sub-micromolar. Regarding `CC[C@H](C)[C@H](NC(=O)[C@@H]1CCCN1C(=O)[C@@H](N)CS)C(=O)NCCOCCOCC(=O)NCCN(CC(=O)NCCN(CC(=O)NCCN(CC(=O)NCCN(CC(=O)NCCN(CC(=O)NCCN(CC(=O)NCCN(CC(=O)NCC(N)=O)C(=O)Cn1cnc2c(=O)[nH]c(N)nc21)C(=O)Cn1cnc2c(N)ncnc21)C(=O)Cn1ccc(N)nc1=O)C(=O)Cn1cnc2c(N)ncnc21)C(=O)Cn1cc(C)c(=O)[nH]c1=O)C(=O)Cn1ccc(N)nc1=O)C(=O)Cn1ccc(N)nc1=O`, the outcome in assay [1] was inactive. For `CC(=O)NCCN(CC(=O)NCCN(CC(=O)NCCN(CC(=O)NCCN(CC(=O)NCCN(CC(=O)NCCN(CC(=O)NCCN(CC(=O)NCCN(CC(=O)N[C@@H](CCCCNC(=O)CCSC(=O)[C@H](C)N)C(N)=O)C(=O)Cn1ccc(N)nc1=O)C(=O)Cn1cnc2c(N)ncnc21)C(=O)Cn1ccc(N)nc1=O)C(=O)Cn1ccc(N)nc1=O)C(=O)Cn1ccc(N)nc1=O)C(=O)Cn1ccc(N)nc1=O)C(=O)Cn1cc(C)c(=O)[nH]c1=O)C(=O)Cn1cc(C)c(=O)[nH]c1=O`, the outcome in assay [1] was inactive. Turning to `CC[C@H](C)[C@H](NC(=O)[C@@H]1CCCN1C(=O)[C@@H](N)CS)C(=O)N[C@@H](C)C(=O)N[C@@H](CCC(N)=O)C(=O)N[C@@H](CCCCN)C(=O)NCCN(CC(=O)NCCN(CC(=O)NCCN(CC(=O)NCCN(CC(=O)NCCN(CC(=O)NCCN(CC(=O)NCCN(CC(=O)NCC(N)=O)C(=O)Cn1cnc2c(=O)[nH]c(N)nc21)C(=O)Cn1cnc2c(N)ncnc21)C(=O)Cn1ccc(N)nc1=O)C(=O)Cn1cnc2c(N)ncnc21)C(=O)Cn1cc(C)c(=O)[nH]c1=O)C(=O)Cn1ccc(N)nc1=O)C(=O)Cn1ccc(N)nc1=O`, the result in assay [1] was inactive.
